Toxic doses and inconclusive results are not listed. No stated cut-off is given here; in the data, active means T/C of 150% or more; inactive means T/C below 125%.
Tested on: L1210 leukemia ip in BDF1 mice, survival T/C
Experiment: NCI In Vivo Anticancer Drug Screen. Data for tumor model L1210 Leukemia (intraperitoneal) in B6D2F1 (BDF1) mice
Conditions: endpoint: mean survival time, higher = longer survival
Outline: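 Transplantable tumor model; survival measured in treated vs vehicle control mice. Value = treated/control.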

[1] = dose: 100.0 mg/kg/injection, schedule: Q01DX001 (ip), vehicle: saline
[2] = dose: 200.0 mg/kg/injection, schedule: Q01DX001 (ip), vehicle: saline
[3] = dose: 100.0 mg/kg/injection, schedule: Q04DX003 (ip), vehicle: gum acacia
[4] = dose: 200.0 mg/kg/injection, schedule: Q04DX003 (ip), vehicle: gum acacia
[5] = dose: 400.0 mg/kg/injection, schedule: Q04DX003 (ip), vehicle: gum acacia
[6] = dose: 100.0 mg/kg/injection, schedule: Q01DX009 (ip), vehicle: Klucel (hydroxypropylcellulose) (HPC)
[7] = dose: 200.0 mg/kg/injection, schedule: Q01DX009 (ip), vehicle: Klucel (hydroxypropylcellulose) (HPC)
[8] = dose: 400.0 mg/kg/injection, schedule: Q01DX001 (ip), vehicle: saline
[9] = dose: 100.0 mg/kg/injection, schedule: Q04DX003 (ip), vehicle: saline
[10] = dose: 200.0 mg/kg/injection, schedule: Q04DX003 (ip), vehicle: saline
[11] = dose: 400.0 mg/kg/injection, schedule: Q04DX003 (ip), vehicle: saline
[12] = dose: 100.0 mg/kg/injection, schedule: Q01DX009 (ip), vehicle: saline with Tween-80
[13] = dose: 200.0 mg/kg/injection, schedule: Q01DX009 (ip), vehicle: saline with Tween-80
[14] = dose: 100.0 mg/kg/injection, schedule: Q04DX003 (ip), vehicle: saline with Tween-80
[15] = dose: 200.0 mg/kg/injection, schedule: Q04DX003 (ip), vehicle: saline with Tween-80
[16] = dose: 400.0 mg/kg/injection, schedule: Q01DX009 (ip), vehicle: saline with Tween-80
[17] = dose: 400.0 mg/kg/injection, schedule: Q04DX003 (ip), vehicle: saline with Tween-80
[18] = dose: 100.0 mg/kg/injection, schedule: Q01DX001 (ip), vehicle: Klucel (hydroxypropylcellulose) (HPC)
[19] = dose: 200.0 mg/kg/injection, schedule: Q01DX001 (ip), vehicle: Klucel (hydroxypropylcellulose) (HPC)
[20] = dose: 400.0 mg/kg/injection, schedule: Q01DX001 (ip), vehicle: Klucel (hydroxypropylcellulose) (HPC)

Measured: T/C

O=C(O)CCNC(=O)c1ccccc1
inactive: dose: 87.5 mg/kg/injection, schedule: Q04DX003 (ip), vehicle: saline 97 % of control | dose: 175.0 mg/kg/injection, schedule: Q04DX003 (ip), vehicle: saline 98 % of control | dose: 350.0 mg/kg/injection, schedule: Q04DX003 (ip), vehicle: saline 93 % of control

COc1cc2c(cc1OC)C(Cc1ccc(O)cc1)N(C)CC2 (configuration not stated)
inactive: [1] 96 % of control | [2] 91 % of control

CCNC(C)(C)C(SSS)c1ccco1 (configuration not stated)
inactive: dose: 12.5 mg/kg/injection, schedule: Q01DX009 (ip), vehicle: gum acacia 90 % of control | dose: 25.0 mg/kg/injection, schedule: Q01DX009 (ip), vehicle: gum acacia 88 % of control | dose: 50.0 mg/kg/injection, schedule: Q01DX009 (ip), vehicle: gum acacia 90 % of control | [3] 95 % of control | [4] 95 % of control | [5] 107 % of control

CCCCCCCCCC1OOC1(C)C (configuration not stated)
inactive: dose: 50.0 mg/kg/injection, schedule: Q01DX001 (ip), vehicle: water 97 % of control | dose: 100.0 mg/kg/injection, schedule: Q01DX001 (ip), vehicle: water 93 % of control | dose: 200.0 mg/kg/injection, schedule: Q01DX001 (ip), vehicle: water 93 % of control

Cc1ccc(C#N)cc1.Cc1ccc(C#N)cc1.[Cl][Pt][Cl]
inactive: dose: 6.25 mg/kg/injection, schedule: Q04DX003 (ip), vehicle: water 109 % of control | dose: 12.5 mg/kg/injection, schedule: Q04DX003 (ip), vehicle: water 109 % of control | dose: 25.0 mg/kg/injection, schedule: Q04DX003 (ip), vehicle: water 106 % of control | dose: 50.0 mg/kg/injection, schedule: Q04DX003 (ip), vehicle: water 105 % of control

O=S(=O)(O)c1cc(Cl)c(O)c(Cl)c1
inactive: [6] 95 % of control | [7] 102 % of control | dose: 400.0 mg/kg/injection, schedule: Q01DX009 (ip), vehicle: Klucel (hydroxypropylcellulose) (HPC) 106 % of control

O=C1C(=O)C(c2ccccc2)Oc2ccccc21 (configuration not stated)
inactive: dose: 50.0 mg/kg/injection, schedule: Q01DX001 (ip), vehicle: saline 89 % of control | [1] 101 % of control | [2] 98 % of control | [8] 95 % of control

C/C(=N/OC(=O)N(C)C)c1ccc(Cl)c(Cl)c1
inactive: dose: 100.0 mg/kg/injection, schedule: Q01DX001 (ip), vehicle: other 96 % of control | dose: 200.0 mg/kg/injection, schedule: Q01DX001 (ip), vehicle: other 98 % of control

CNc1ncnc2c1c(Br)cn2C1OC(CO)C(O)C1O (configuration not stated)
inactive: dose: 5.0 mg/kg/injection, schedule: Q01DX001 (ip), vehicle: saline 104 % of control | dose: 10.0 mg/kg/injection, schedule: Q01DX001 (ip), vehicle: saline 104 % of control | dose: 20.0 mg/kg/injection, schedule: Q01DX001 (ip), vehicle: saline 104 % of control

CC(=O)Cc1ccc(Cl)cc1
inactive: dose: 100.0 mg/kg/injection, schedule: Q04DX002 (ip), vehicle: saline 92 % of control | dose: 200.0 mg/kg/injection, schedule: Q04DX002 (ip), vehicle: saline 95 % of control | dose: 400.0 mg/kg/injection, schedule: Q04DX002 (ip), vehicle: saline 99 % of control

Cn1cnc([N+](=O)[O-])c1SCC(=O)O
inactive: [9] 102 % of control | [10] 102 % of control | [11] 101 % of control

O=C(N/N=C/c1ccccc1F)c1ccc(Cl)cc1
inactive: dose: 50.0 mg/kg/injection, schedule: Q01DX009 (ip), vehicle: saline with Tween-80 96 % of control | [12] 96 % of control | [13] 96 % of control

CCCCCCCCCCCCCCCCS(=O)(=O)c1ccc(Cl)cc1
inactive: dose: 100.0 mg/kg/injection, schedule: Q01DX009 (ip), vehicle: gum acacia 91 % of control | [3] 94 % of control | dose: 200.0 mg/kg/injection, schedule: Q01DX009 (ip), vehicle: gum acacia 92 % of control | [4] 93 % of control | dose: 400.0 mg/kg/injection, schedule: Q01DX009 (ip), vehicle: gum acacia 91 % of control | [5] 86 % of control

CC(=O)Nc1ccc(CCc2nc(N)nc(Cl)c2-c2ccc(Cl)cc2)cc1
inactive: dose: 75.0 mg/kg/injection, schedule: Q01DX001 (ip), vehicle: saline 92 % of control | dose: 150.0 mg/kg/injection, schedule: Q01DX001 (ip), vehicle: saline 87 % of control | dose: 300.0 mg/kg/injection, schedule: Q01DX001 (ip), vehicle: saline 90 % of control

CCOC(=O)C1=C(C)NC(C)=C(C(C)=O)C1c1ccnc2ccccc12 (configuration not stated)
inactive: [12] 98 % of control | [14] 95 % of control | [13] 102 % of control | [15] 92 % of control | [16] 100 % of control | [17] 100 % of control

Cc1ccc(S(=O)(=O)Nc2ccc([N+](=O)[O-])cc2)cc1
inactive: [18] 97 % of control | [19] 97 % of control | [20] 113 % of control

Cc1nccc2c(C)c3c(cc12)c1ccccc1n3CCC1CO1 (configuration not stated)
inactive: dose: 37.5 mg/kg/injection, schedule: Q04DX003 (ip), vehicle: water 118 % of control | dose: 75.0 mg/kg/injection, schedule: Q04DX003 (ip), vehicle: water 122 % of control | dose: 150.0 mg/kg/injection, schedule: Q04DX003 (ip), vehicle: water 118 % of control

C=CC(C)CCCC(C)C (configuration not stated)
inactive: [9] 91 % of control | [10] 97 % of control | [11] 91 % of control

COC(=O)CC1CCS(=O)(=O)C1 (configuration not stated)
inactive: [12] 101 % of control | [13] 103 % of control | [16] 95 % of control

COc1ccc2c(c1)CCN(C1=C(C)C(=O)CC1)C2CC(=O)O (configuration not stated)
inactive: [1] 104 % of control | [2] 101 % of control | [8] 90 % of control

CN1CCN(/N=N/N2CCN(C)CC2)CC1
inactive: [18] 105 % of control | [19] 101 % of control | [20] 100 % of control

CC(=O)Nc1ccc2c(c1)C(=O)c1cc(F)ccc1-2
inactive: [14] 100 % of control | [15] 96 % of control | [17] 110 % of control

CCOC(=O)C1CCC(=O)N1 (configuration not stated)
inactive: dose: 100.0 mg/kg/injection, schedule: Q04DX003 (ip), vehicle: Klucel (hydroxypropylcellulose) (HPC) 96 % of control | dose: 200.0 mg/kg/injection, schedule: Q04DX003 (ip), vehicle: Klucel (hydroxypropylcellulose) (HPC) 98 % of control | dose: 400.0 mg/kg/injection, schedule: Q04DX003 (ip), vehicle: Klucel (hydroxypropylcellulose) (HPC) 98 % of control

CN1CCN(c2ccc3nnc(Cl)n3n2)CC1
inactive: dose: 50.0 mg/kg/injection, schedule: Q04DX003 (ip), vehicle: saline with Tween-80 97 % of control

Oc1ccc(O)c(-c2cc3c(O)ccc(O)c3[nH]2)c1
inactive: dose: 25.0 mg/kg/injection, schedule: Q04DX002 (ip), vehicle: Klucel (hydroxypropylcellulose) (HPC) 104 % of control | dose: 50.0 mg/kg/injection, schedule: Q04DX002 (ip), vehicle: Klucel (hydroxypropylcellulose) (HPC) 93 % of control | dose: 100.0 mg/kg/injection, schedule: Q04DX002 (ip), vehicle: Klucel (hydroxypropylcellulose) (HPC) 104 % of control | dose: 200.0 mg/kg/injection, schedule: Q04DX002 (ip), vehicle: Klucel (hydroxypropylcellulose) (HPC) 96 % of control

Cc1ccc(S(=O)C(c2ccccc2)C(c2ccccc2)C(C)O)cc1 (configuration not stated)
inactive: [12] 89 % of control | [13] 89 % of control | [16] 91 % of control

CC([NH-])c1ccccc1.[Cl][Pt]([Cl])[Cl] (configuration not stated)
inactive: dose: 100.0 mg/kg/injection, schedule: Q01DX009 (ip), vehicle: saline 97 % of control | dose: 200.0 mg/kg/injection, schedule: Q01DX009 (ip), vehicle: saline 92 % of control | dose: 400.0 mg/kg/injection, schedule: Q01DX009 (ip), vehicle: saline 87 % of control

O=S1(=O)CCCC(c2ccccc2)=C1c1ccccc1
inactive: dose: 50.0 mg/kg/injection, schedule: Q01DX009 (ip), vehicle: Klucel (hydroxypropylcellulose) (HPC) 102 % of control | [6] 105 % of control | [7] 91 % of control

— PubChem BioAssay AID248 (DTP/NCI, 2004)
